Data from US4284553A, “Reversible method for covalent immobilization of biochemicals” (North Carolina State University at Raleigh, priority 1980, dated 1981).
Blank lines part the entries; values can stand above or below the molecule they belong to.

Assays:
[1] = target: T1, α-Chymotrypsin (EC 3.4.21.1) from bovine pancreas, immobilized on thioester-derivatized glass beads (20.2 mg/g) (Bos taurus, UniProt P00766); assay: Hydrolysis of BzTyrOEt by α-chymotrypsin immobilized on thioester-glass beads (20.2 mg/g); format: biochemical; parameters: unit not given here; conditions: substrate BzTyrOEt; immobilized (20.2 mg/g)
T1 construct: purchased Miles Laboratories or Sigma Chemical Co; host or cells: bovine pancreas
Method: (§1) α-Chymotrypsin (EC 3.4.21.1) from bovine pancreas was obtained as a lyophilized powder from Miles Laboratories or Sigma Chemical Co. and used without further purification. All chemicals used were reagent grade or better.
(§2) Succinamidopropyl-derivatized glass was converted to the acyl chloride derivative by treatment with anhydrous thionyl chloride. Care was taken to prevent the introduction of water in each of these reaction steps. The reacion mixture was held at 70° C. for 1 hour. The solution was then cooled to 25° C., and excess thionyl chloride was drained from the beads, which were then rinsed thoroughly with dry dichloromethane. The beads were next covered with anhydrous 3-mercaptopropionic acid and again held at 70° C. for 1 hour. Following reaction, the excess acid was drained, and the derivatized beads were again washed with dichloromethane. […]
(§3) Hydrolysis of benzoly-L-tyrosine ethyl ester (BzTyrOEt) by α-chymotrypsin was assayed according to the method of Hummel, B. C. […] Reaction was initiated by addition of soluble enzyme to the reaction mixture, and reaction progress was monitored spectrophotometrically at 256 nm. […] Initial slopes were read directly from the recorder chart and kinetic constants were evaluated using a computer program to fit data directly to velocity versus substrate concentration curves.

[2] = target: T2, α-Chymotrypsin (EC 3.4.21.1) from bovine pancreas, immobilized on thioester-derivatized glass beads (9.5 mg/g) (Bos taurus, UniProt P00766); assay: Hydrolysis of BzTyrOEt by α-chymotrypsin immobilized on thioester-glass beads (9.5 mg/g, after brief hydroxylamine treatment); format: biochemical; parameters: unit not given here; conditions: substrate BzTyrOEt; immobilized (9.5 mg/g)
T2 construct: purchased Miles Laboratories or Sigma Chemical Co; host or cells: bovine pancreas
Method: as §1, §2, §3

[3] = system: CCOC(=O)[C@H](Cc1ccc(O)cc1)NC(=O)c1ccccc1; assay: purified protein, by the assay type; conditions: other: substrate BzTyrOEt

kcat /Km (app) [1]: 0.9
kcat /Km (app) [2]: 1.0
Molecule: CCOC(=O)[C@H](Cc1ccc(O)cc1)NC(=O)c1ccccc1 [BzTyrOEt, benzoly-L-tyrosine ethyl ester]

Molecule: α-Chymotrypsin (EC 3.4.21.1) from bovine pancreas, soluble enzyme released by hydroxylamine (thioacylated, about three chains per molecule) (Bos taurus)
Km ([3]; soluble enzyme released by hydroxylamine, pH 7.0): 3.35 mM

Molecule: α-Chymotrypsin (EC 3.4.21.1) from bovine pancreas, native soluble enzyme before immobilization (Bos taurus)
Km ([3]; soluble enzyme before immobilization): 2.74 mM
